For one assay, the target named is T1, PbdA R84M (Rhodococcus jostii, UniProt Q0SCI3, R82M).
T1 construct: hexaHis (N, cleaved yes); made in house; host or cells: PbdA variant: E. coli BL-21 λ (DE3); PbdB: Rhodococcus jostii RHA1
As to the kind of experiment: Activity and coupling assay of PbdA R84M variant with PbdB. Type of assay: biochemical, Rhodococcus jostii RHA1. The protocol:
(§1) For activity measurements 0.25 to 1 μM of PbdA and PbdB were combined in a 200 μl cuvette in 20 mM Mops, pH 7.2 with substrate diluted in the same buffer. NADH was added to 350 μM to initiate the reaction. For HPLC analysis, enzymatic reactions were acidified by adding acetic acid to 10% final concentration, centrifuged (16,000×g for 10 min), and filtered through a 0.2 μm polytetrafluoroethylene membrane. Samples were run over a Luna 5 μm C18(2) 100 Å 150 × 3 mm column (Phenomenex) at 0.7 ml min^−1 by a Waters 2695 separation HPLC module. Samples were eluted with a 16.8 ml linear gradient from 1% methanol plus 0.1% formic acid in water to 100% methanol plus 0.1% formic acid and monitored at 280 nm with a Waters 2996 photodiode array detector. Concentrations were determined by interpolation on a standard curve of 0 to 1 mM of authentic standard. NADH concentration was measured by absorbance at 340 nm, ε = 6.22 mM^-1 cm^-1. Coupling was calculated from the ratio of rate of aromatic turnover, as determined by HPLC, and the rate of NADH oxidation, determined spectroscopically. Buffer ionic strength was adjusted by addition of NaCl, as appropriate. Apparent steady-state kinetic parameters were calculated by fitting Michaelis–Menten equations to initial velocity of reactions at various concentrations of aromatic substrate (LEONORA).
(§2) ^aExperiments were performed using air-saturated MOPS (I = 0.1 M), pH 7.2, at 25 °C. The rate of aromatic substrate turnover was based on the appearance of O-demethylated product. Standard deviation is shown in parentheses.

The target in a further assay is T2, PbdA S87A/S237A (Rhodococcus jostii, UniProt Q0SCI3, S235A/S85A).
T2 construct: hexaHis (N, cleaved yes); made in house; host or cells: PbdA variant: E. coli BL-21 λ (DE3); PbdB: Rhodococcus jostii RHA1
The assay is described as follows: Activity and coupling assay of PbdA S87A/S237A variant with PbdB. The class given is biochemical, Rhodococcus jostii RHA1. As to the method:
as §1, §2

The target in another assay is T3, PbdA S237A (Rhodococcus jostii, UniProt Q0SCI3, S235A).
T3 construct: hexaHis (N, cleaved yes); made in house; host or cells: PbdA variant: E. coli BL-21 λ (DE3); PbdB: Rhodococcus jostii RHA1
The assay is described as follows: Substrate binding to PbdA S237A variant by spectral titration. Details: species or system Rhodococcus jostii RHA1. The protocol: UV-visible spectroscopy was conducted with a Cary 60 spectrophotometer equipped with a thermostatted cuvette holder at 25 °C. Scans of purified proteins diluted in 20 mM Mops, I = 0.1 M, pH 7.2 were taken between 250 and 700 nm. Heme concentration was calculated as described previously ([35]). Carbon monoxide binding was determined by reduction of PbdA diluted in 20 mM Mops, I = 0.1 M, pH 7.2 as above by a few grains of […]. CO was bubbled into the reduced enzyme for approximately 60 s at a rate of one bubble per second. Dissociation constants (Kd) were determined by titration of ligands diluted into enzyme buffer from 1 M stocks prepared in dimethyl sulfoxide into PbdA diluted in 20 mM Mops, I = 0.1 M, pH 7.2. Spectra take upon addition of substrate were subtracted from the spectrum of the enzyme, and peak-to-trough distance was plotted by ligand concentration. Kd values were determined by fitting a hyperbolic equation to the data as described previously ([23], [36]). The proportion of high-spin heme iron was determined using the approximate peak-to-trough extinction coefficient (ε ≈ 100 mM^−1 cm^−1) ([36]).

The mark [1] stands for this setting: air-saturated MOPS (I = 0.1 M), pH 7.2, 25 °C.
[2] abbreviates: appearance of O-demethylated product.

T1 sequence (Q0SCI3 entry or part of it R82M): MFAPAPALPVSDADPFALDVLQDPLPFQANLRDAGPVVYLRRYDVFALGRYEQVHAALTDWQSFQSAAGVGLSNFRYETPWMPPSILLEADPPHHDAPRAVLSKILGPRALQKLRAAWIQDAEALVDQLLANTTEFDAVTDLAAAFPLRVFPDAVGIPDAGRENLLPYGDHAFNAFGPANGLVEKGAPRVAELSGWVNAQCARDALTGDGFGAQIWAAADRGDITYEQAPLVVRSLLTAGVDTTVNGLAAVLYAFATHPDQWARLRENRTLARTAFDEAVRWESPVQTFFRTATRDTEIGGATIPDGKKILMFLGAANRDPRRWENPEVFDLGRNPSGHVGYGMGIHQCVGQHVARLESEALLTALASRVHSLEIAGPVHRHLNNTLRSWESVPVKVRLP
T2 sequence (Q0SCI3 entry or part of it S85A/S235A): as the sequence (Q0SCI3 entry or part of it R82M) above, with M82R, S85A, S235A counted along it
T3 sequence (Q0SCI3 entry or part of it S235A): as the sequence (Q0SCI3 entry or part of it R82M) above, with M82R, S235A counted along it

Regarding `COc1ccc(C(=O)O)cc1` [p-MBA, p-methoxybenzoate], the Coupling at PbdA R84M is 70 (9) %; on PbdA S87A/S237A, 40 (2) %. Moreover, the Specific activity on PbdA R84M (O-demethylation) was 1100 (200) U μg P450^-1; on PbdA S87A/S237A (O-demethylation), 180 (10) U μg P450^-1. The NADH depletion rate at PbdA R84M (setting [1]) was 1700 (200) U mg P450^-1; on PbdA S87A/S237A (setting [1]), 400 (30) U mg P450^-1. Moreover, the “Rate of Aromatic turnover” value at PbdA R84M (setting [2]) is 1100 (200) U mg P450^-1; at PbdA S87A/S237A (setting [2]), 170 (10) U mg P450^-1. Moreover, the Kd – broadly, the free concentration of one partner at which half of the binding sites on the other are occupied at equilibrium, for simple one-to-one binding – on PbdA S237A was found to be 29 µM. For the same molecule, at PbdA S237A (S237A variant, binding energy), the “ΔG°” value was -6.2 kcal/mol. Also, the “ΔΔG°” value on PbdA S237A (S237A variant, comparison of ΔG° of variant to wild type) turned out to be 1.2 kcal/mol.

Values taken from article PMC11530827, “Characterization of a cytochrome P450 that catalyzes the O-demethylation of lignin-derived benzoates” (The Journal of Biological Chemistry, 2024).
